# “And” between values parts separate entries of the source, which are not always exact repeats. Identical values can stand only once. Toxic doses and inconclusive results are not listed.
# Tested on: CD2F1 mice, L1210 leukemia ip, survival T/C
# Experiment: NCI In Vivo Anticancer Drug Screen. Data for tumor model L1210 Leukemia (intraperitoneal) in CD2F1 (CDF1) mice
# Conditions: higher = longer survival
# Method in brief: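 Each value reflects a quotient of treated over vehicle control outcomes in mice with a transplanted tumor.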
# [1] = endpoint: mean survival time, dose: 12.5 mg/kg/injection, schedule: Q01DX009 (ip), vehicle: saline
# [2] = endpoint: mean survival time, dose: 200.0 mg/kg/injection, schedule: Q01DX009 (ip), vehicle: saline
# [3] = endpoint: mean survival time, dose: 100.0 mg/kg/injection, schedule: Q01DX001 (ip), vehicle: saline with Tween-80
# [4] = endpoint: mean survival time, dose: 200.0 mg/kg/injection, schedule: Q01DX001 (ip), vehicle: saline with Tween-80
# [5] = endpoint: mean survival time, dose: 400.0 mg/kg/injection, schedule: Q01DX001 (ip), vehicle: saline with Tween-80
# [6] = endpoint: mean survival time, dose: 3.12 mg/kg/injection, schedule: Q01DX009 (ip), vehicle: saline
# [7] = endpoint: mean survival time, dose: 6.25 mg/kg/injection, schedule: Q01DX009 (ip), vehicle: saline
# [8] = endpoint: mean survival time, dose: 6.25 mg/kg/injection, schedule: Q01DX009 (ip), vehicle: Klucel (hydroxypropylcellulose) (HPC)
# [9] = endpoint: mean survival time, dose: 12.5 mg/kg/injection, schedule: Q01DX009 (ip), vehicle: Klucel (hydroxypropylcellulose) (HPC)
# [10] = endpoint: mean survival time, dose: 25.0 mg/kg/injection, schedule: Q01DX009 (ip), vehicle: Klucel (hydroxypropylcellulose) (HPC)
# [11] = endpoint: mean survival time, dose: 50.0 mg/kg/injection, schedule: Q01DX009 (ip), vehicle: Klucel (hydroxypropylcellulose) (HPC)
# [12] = endpoint: mean survival time, dose: 100.0 mg/kg/injection, schedule: Q01DX009 (ip), vehicle: Klucel (hydroxypropylcellulose) (HPC)
structure (smiles),measurement,setting,value
CC[n+]1ccc(Nc2ccc(NC(=O)c3ccc(C(=O)Nc4ccc(Nc5cc[n+](CC)c(N)n5)cc4)cc3)cc2)nc1N,T/C,[1],172 % of control
same,T/C,"endpoint: mean survival time, dose: 25.0 mg/kg/injection, schedule: Q01DX009 (ip), vehicle: saline",325 % of control
same,T/C,"endpoint: mean survival time, dose: 40.0 mg/kg/injection, schedule: Q01DX009 (ip), vehicle: saline",265 % of control
same,T/C,"endpoint: mean survival time, dose: 50.0 mg/kg/injection, schedule: Q01DX009 (ip), vehicle: saline",275 % of control
same,T/C,"endpoint: mean survival time, dose: 59.0 mg/kg/injection, schedule: Q01DX009 (ip), vehicle: saline",262 % of control
same,T/C,"endpoint: mean survival time, dose: 89.0 mg/kg/injection, schedule: Q01DX009 (ip), vehicle: saline",212 % of control
same,T/C,"endpoint: mean survival time, dose: 150.0 mg/kg/injection, schedule: Q01DX001 (ip), vehicle: Klucel (hydroxypropylcellulose) (HPC)",167 % of control
same,T/C,[2],118 % of control
same,T/C,"endpoint: mean survival time, dose: 225.0 mg/kg/injection, schedule: Q01DX001 (ip), vehicle: Klucel (hydroxypropylcellulose) (HPC)",315 % of control
c1cc2c(c(CC3CO3)c1CC1CO1)OCCOCCOCCOCCO2 (stereo unspecified),T/C,"endpoint: median survival time, dose: 12.5 mg/kg/injection, schedule: Q01DX009 (ip), vehicle: saline + alcohol",112 % of control and 97 % of control and 98 % of control
same,T/C,"endpoint: median survival time, dose: 25.0 mg/kg/injection, schedule: Q01DX009 (ip), vehicle: saline + alcohol",123 % of control and 97 % of control and 98 % of control
same,T/C,"endpoint: median survival time, dose: 50.0 mg/kg/injection, schedule: Q01DX009 (ip), vehicle: saline + alcohol",102 % of control and 104 % of control
same,T/C,"endpoint: median survival time, dose: 100.0 mg/kg/injection, schedule: Q01DX009 (ip), vehicle: saline + alcohol",119 % of control and 93 % of control and 110 % of control
same,T/C,"endpoint: median survival time, dose: 200.0 mg/kg/injection, schedule: Q01DX009 (ip), vehicle: saline + alcohol",120 % of control
NC(N)=N/N=C/c1cc(Cl)cc(Cl)c1O,T/C,"endpoint: mean survival time, dose: 18.8 mg/kg/injection, schedule: Q01DX009 (ip), vehicle: saline",108 % of control
same,T/C,"endpoint: mean survival time, dose: 18.8 mg/kg/injection, schedule: Q04DX003 (ip), vehicle: saline",106 % of control
same,T/C,"endpoint: mean survival time, dose: 37.5 mg/kg/injection, schedule: Q01DX009 (ip), vehicle: saline",109 % of control
same,T/C,"endpoint: mean survival time, dose: 37.5 mg/kg/injection, schedule: Q04DX003 (ip), vehicle: saline",112 % of control
same,T/C,"endpoint: mean survival time, dose: 75.0 mg/kg/injection, schedule: Q01DX009 (ip), vehicle: saline",94 % of control
same,T/C,"endpoint: mean survival time, dose: 75.0 mg/kg/injection, schedule: Q04DX003 (ip), vehicle: saline",114 % of control
CCCCCCCC(O)CCCCCCC,T/C,"endpoint: mean survival time, dose: 100.0 mg/kg/injection, schedule: Q01DX009 (ip), vehicle: other",101 % of control
same,T/C,"endpoint: mean survival time, dose: 100.0 mg/kg/injection, schedule: Q04DX003 (ip), vehicle: other",95 % of control
same,T/C,"endpoint: mean survival time, dose: 200.0 mg/kg/injection, schedule: Q01DX009 (ip), vehicle: other",98 % of control
same,T/C,"endpoint: mean survival time, dose: 200.0 mg/kg/injection, schedule: Q04DX003 (ip), vehicle: other",97 % of control
same,T/C,"endpoint: mean survival time, dose: 400.0 mg/kg/injection, schedule: Q01DX009 (ip), vehicle: other",95 % of control
same,T/C,"endpoint: mean survival time, dose: 400.0 mg/kg/injection, schedule: Q04DX003 (ip), vehicle: other",100 % of control
O=CO.[Co],T/C,"endpoint: mean survival time, dose: 5.0 mg/kg/injection, schedule: Q01DX001 (ip), vehicle: saline",106 % of control
same,T/C,"endpoint: mean survival time, dose: 10.0 mg/kg/injection, schedule: Q01DX001 (ip), vehicle: saline",103 % of control
same,T/C,"endpoint: mean survival time, dose: 20.0 mg/kg/injection, schedule: Q01DX001 (ip), vehicle: saline",106 % of control
same,T/C,"endpoint: mean survival time, dose: 40.0 mg/kg/injection, schedule: Q01DX001 (ip), vehicle: saline",100 % of control
CC1CCCCC1NC(=O)c1ccccc1 (stereo unspecified),T/C,[3],100 % of control
same,T/C,[4],98 % of control
same,T/C,[5],87 % of control
OCCN1CCN(CC/C=C2\c3ccccc3Sc3ccc(Cl)cc32)CC1,T/C,[6],102 % of control
same,T/C,[7],116 % of control
same,T/C,[1],122 % of control
N=C(N)CCCCCCCCC(=N)N,T/C,"endpoint: mean survival time, dose: 0.78 mg/kg/injection, schedule: Q01DX009 (ip), vehicle: saline",162 % of control
same,T/C,"endpoint: mean survival time, dose: 1.56 mg/kg/injection, schedule: Q01DX009 (ip), vehicle: saline",96 % of control
same,T/C,[6],104 % of control
same,T/C,[7],106 % of control
same,T/C,[1],115 % of control
N#CSC/C(Br)=C/Br,T/C,"endpoint: mean survival time, dose: 6.25 mg/kg/injection, schedule: Q04DX003 (ip), vehicle: saline with Tween-80",97 % of control
same,T/C,"endpoint: mean survival time, dose: 12.5 mg/kg/injection, schedule: Q04DX003 (ip), vehicle: saline with Tween-80",103 % of control
same,T/C,"endpoint: mean survival time, dose: 25.0 mg/kg/injection, schedule: Q04DX003 (ip), vehicle: saline with Tween-80",92 % of control
CCCCCCCCCCCCCCCCCCCOc1ccc(OCCCCCCCCCCCCCCCC)cc1,T/C,[3],100 % of control
same,T/C,[4],96 % of control
same,T/C,[5],88 % of control
CCCCCC[C@H]([C@H](C)O)n1cnc2c(N)ncnc21,T/C,"endpoint: mean survival time, dose: 0.38 mg/kg/injection, schedule: Q03HX024 (ip), vehicle: saline with Tween-80",92 % of control
same,T/C,"endpoint: mean survival time, dose: 0.57 mg/kg/injection, schedule: Q03HX024 (ip), vehicle: saline with Tween-80",96 % of control
same,T/C,"endpoint: mean survival time, dose: 1.3 mg/kg/injection, schedule: Q03HX024 (ip), vehicle: saline with Tween-80",102 % of control
same,T/C,"endpoint: mean survival time, dose: 2.0 mg/kg/injection, schedule: Q03HX024 (ip), vehicle: saline with Tween-80",98 % of control
same,T/C,"endpoint: mean survival time, dose: 3.0 mg/kg/injection, schedule: Q03HX024 (ip), vehicle: saline with Tween-80",96 % of control
same,T/C,"endpoint: mean survival time, dose: 4.5 mg/kg/injection, schedule: Q03HX024 (ip), vehicle: saline with Tween-80",98 % of control
same,T/C,"endpoint: mean survival time, dose: 5.0 mg/kg/injection, schedule: Q03HX024 (ip), vehicle: saline with Tween-80",104 % of control
same,T/C,[8],95 % of control and 100 % of control
same,T/C,"endpoint: mean survival time, dose: 10.0 mg/kg/injection, schedule: Q03HX024 (ip), vehicle: saline with Tween-80",107 % of control
same,T/C,[9],98 % of control and 100 % of control
same,T/C,[10],100 % of control and 101 % of control
same,T/C,"endpoint: mean survival time, dose: 25.0 mg/kg/injection, schedule: Q03HX024 (ip), vehicle: saline with Tween-80",105 % of control
same,T/C,[11],97 % of control and 100 % of control
same,T/C,"endpoint: mean survival time, dose: 50.0 mg/kg/injection, schedule: Q03HX024 (ip), vehicle: saline with Tween-80",105 % of control
same,T/C,[12],95 % of control and 100 % of control
same,T/C,"endpoint: mean survival time, dose: 100.0 mg/kg/injection, schedule: Q03HX024 (ip), vehicle: saline with Tween-80",96 % of control
same,T/C,"endpoint: mean survival time, dose: 200.0 mg/kg/injection, schedule: Q01DX009 (ip), vehicle: Klucel (hydroxypropylcellulose) (HPC)",100 % of control
same,T/C,"endpoint: median survival time, dose: 25.0 mg/kg/injection, schedule: Q01DX009 (ip), vehicle: Klucel (hydroxypropylcellulose) (HPC)",96 % of control
same,T/C,"endpoint: median survival time, dose: 50.0 mg/kg/injection, schedule: Q01DX009 (ip), vehicle: Klucel (hydroxypropylcellulose) (HPC)",101 % of control
same,T/C,"endpoint: median survival time, dose: 100.0 mg/kg/injection, schedule: Q01DX009 (ip), vehicle: Klucel (hydroxypropylcellulose) (HPC)",97 % of control
OC1C2COC(O2)C(O)C1O (stereo unspecified),T/C,"endpoint: mean survival time, dose: 100.0 mg/kg/injection, schedule: Q01DX009 (ip), vehicle: saline",98 % of control
same,T/C,[2],101 % of control
same,T/C,"endpoint: mean survival time, dose: 400.0 mg/kg/injection, schedule: Q01DX009 (ip), vehicle: saline",98 % of control
CN(C)C=Nc1cnc2ccccc2c1,T/C,"endpoint: mean survival time, dose: 100.0 mg/kg/injection, schedule: Q04DX003 (ip), vehicle: saline with Tween-80",95 % of control
same,T/C,"endpoint: mean survival time, dose: 200.0 mg/kg/injection, schedule: Q04DX003 (ip), vehicle: saline with Tween-80",95 % of control
same,T/C,"endpoint: mean survival time, dose: 400.0 mg/kg/injection, schedule: Q04DX003 (ip), vehicle: saline with Tween-80",96 % of control
C1CCC2OCCOCCOC3CCCCC3OCCOCCOC2C1 (stereo unspecified),T/C,"endpoint: mean survival time, dose: 3.12 mg/kg/injection, schedule: Q01DX009 (ip), vehicle: Klucel (hydroxypropylcellulose) (HPC)",108 % of control
same,T/C,[8],98 % of control and 103 % of control
same,T/C,[9],87 % of control and 100 % of control
same,T/C,[10],102 % of control and 103 % of control
same,T/C,[11],100 % of control and 104 % of control
same,T/C,[12],91 % of control
ClC1CC2C=CC1C2 (stereo unspecified),T/C,[3],103 % of control
same,T/C,[4],100 % of control
same,T/C,[5],102 % of control
Nc1ccccc1-c1ccccc1N,T/C,"endpoint: mean survival time, dose: 100.0 mg/kg/injection, schedule: Q04DX002 (ip), vehicle: saline",87 % of control
CCC(C)C(C(=O)O)c1ccccc1 (stereo unspecified),T/C,"endpoint: mean survival time, dose: 100.0 mg/kg/injection, schedule: Q01DX009 (ip), vehicle: saline with Tween-80",104 % of control
same,T/C,"endpoint: mean survival time, dose: 200.0 mg/kg/injection, schedule: Q01DX009 (ip), vehicle: saline with Tween-80",101 % of control
same,T/C,"endpoint: mean survival time, dose: 400.0 mg/kg/injection, schedule: Q01DX009 (ip), vehicle: saline with Tween-80",98 % of control

# — PubChem BioAssay AID256 (DTP/NCI, 2004)
